Assay in all cases: Bacterial panel testing, MIC by broth microdilution
What all share (format): cell-based
Holding throughout (settings): 20-24 hours growth
For orientation: Broth dilution looks for growth in wells or tubes with falling amounts of substance.

One test relates to Pseudomonas aeruginosa. How it is done: (§1) One to three colonies of bacteria were picked from an Mueller-Hinton or Brain Heart infusion agar plate (depending on the bacterial strain) and transferred to 3 ml Mueller-Hinton broth or Brain Heart infusion media (depending on the bacterial strain). Bacteria were allowed to grow for 2-4 hours in an incubator at 37° C. Bacteria-inoculated media were dispersed in 0.9% saline to match McFarland standard density. 100 μl standardized inoculation was added to 20 ml media (dilution 1). 10 μl of the new dilution was added to 990 μl media and mixed (dilution 2). 10 μl of dilution 2 was spread on an agar plate and allowed to grow overnight. Colonies were then […].
(§2) Test compound was diluted to 10 μg/ml in dimethylsulfoxide. Four μl of Rifampicin antibiotic was loaded into row H, column 2.
(§3) All wells were then filled with 100 μl of inoculated media (dilution 1 from Example 1). A further 100 μl of the inoculated media was then added to column 2 and the contents are pipetted to thoroughly mix the contents. A full 100 μl was then transferred from column 2 and mixed into column 3. This process was continued from left to right until columns 2-12 were serially diluted, and the final draw from column 12 was discarded. The plates were covered with 3M sealing tape (plates containing Enterococcus faecium were sealed with Air Pore sealing tape) and allowed to grow for 20-24 hours. Cytotoxic wells (clear wells) are then scored and the potency of the compound was determined.

The test system of a further test is Salmonella choleraesuis. As for the experimental part:
as §1, §2, §3

A further test relates to Eschericia coli. As for the experimental part: as §1, §2, §3
For the next test, the system named is Enterococcus faecium. How it is done:
as §1, §2, §3

Each structure is given as a SMILES string. Some results are limits rather than exact numbers.

Consider `CCCCCCCCCCNC[C@H]1O[C@@H]2O[C@H]3[C@H](O)[C@@H](O)[C@@H](O[C@H]4[C@H](O)[C@@H](O)[C@@H](O[C@H]5[C@H](O)[C@@H](O)[C@@H](O[C@H]6[C@H](O)[C@@H](O)[C@@H](O[C@H]7[C@H](O)[C@@H](O)[C@@H](O[C@H]8[C@H](O)[C@@H](O)[C@@H](O[C@H]1[C@H](O)[C@H]2O)O[C@@H]8CNCCCCCCCCCC)O[C@@H]7CNCCCCCCCCCC)O[C@@H]6CNCCCCCCCCCC)O[C@@H]5CNCCCCCCCCCC)O[C@@H]4CNCCCCCCCCCC)O[C@@H]3CNCCCCCCCCCC`, for which the “MIC PA” value in the test with Pseudomonas aeruginosa is over 200 µg/mL. In addition, in the test with Salmonella choleraesuis, the “MIC SC” value is over 200 µg/mL. The “MIC EC” value against Eschericia coli is over 200 µg/mL.

Turning to `Oc1cccnc1NCC1OC2OC3C(CNc4ncccc4O)OC(OC4C(CNc5ncccc5O)OC(OC5C(CNc6ncccc6O)OC(OC6C(CNc7ncccc7O)OC(OC7C(CNc8ncccc8O)OC(OC8C(CNc9ncccc9O)OC(OC1C(O)C2O)C(O)C8O)C(O)C7O)C(O)C6O)C(O)C5O)C(O)C4O)C(O)C3O` (stereo not shown), in the test with Pseudomonas aeruginosa, the “MIC PA” value was over 200 µg/mL. Moreover, in the test with Salmonella choleraesuis, the “MIC SC” value was over 200 µg/mL. In addition, in the test with Eschericia coli, the “MIC EC” value is over 200 µg/mL.

With `CCCCCCCCCCCC[N+]12CC[N+](CC3OC4OC5C(C[N+]67CC[N+](CCCCCCCCCCCC)(CC6)CC7)OC(OC6C(C[N+]78CC[N+](CCCCCCCCCCCC)(CC7)CC8)OC(OC7C(C[N+]89CC[N+](CCCCCCCCCCCC)(CC8)CC9)OC(OC8C(C[N+]9%10CC[N+](CCCCCCCCCCCC)(CC9)CC%10)OC(OC9C(C[N+]%10%11CC[N+](CCCCCCCCCCCC)(CC%10)CC%11)OC(OC%10C(C[N+]%11%12CC[N+](CCCCCCCCCCCC)(CC%11)CC%12)OC(OC3C(O)C4O)C(O)C%10O)C(O)C9O)C(O)C8O)C(O)C7O)C(O)C6O)C(O)C5O)(CC1)CC2.[Br-].[Br-].[Br-].[Br-].[Br-].[Br-].[Br-].[Br-].[Br-].[Br-].[Br-].[Br-].[Br-].[Br-]` (stereo not shown), the “MIC PA” value against Pseudomonas aeruginosa is over 200 µg/mL. Further, the “MIC SC” value with Salmonella choleraesuis is over 200 µg/mL. The “MIC EC” value against Eschericia coli is over 200 µg/mL.

Regarding `CCCCCCCCCCCCCCCC[N+]12CC[N+](CC3OC4OC5C(C[N+]67CC[N+](CCCCCCCCCCCCCCCC)(CC6)CC7)OC(OC6C(C[N+]78CC[N+](CCCCCCCCCCCCCCCC)(CC7)CC8)OC(OC7C(C[N+]89CC[N+](CCCCCCCCCCCCCCCC)(CC8)CC9)OC(OC8C(C[N+]9%10CC[N+](CCCCCCCCCCCCCCCC)(CC9)CC%10)OC(OC9C(C[N+]%10%11CC[N+](CCCCCCCCCCCCCCCC)(CC%10)CC%11)OC(OC%10C(C[N+]%11%12CC[N+](CCCCCCCCCCCCCCCC)(CC%11)CC%12)OC(OC3C(O)C4O)C(O)C%10O)C(O)C9O)C(O)C8O)C(O)C7O)C(O)C6O)C(O)C5O)(CC1)CC2.[Br-].[Br-].[Br-].[Br-].[Br-].[Br-].[Br-].[Br-].[Br-].[Br-].[Br-].[Br-].[Br-].[Br-]` (stereo not shown), the “MIC PA” value against Pseudomonas aeruginosa was over 200 µg/mL.

For `OC1C2OC(CNc3cccc4ccccc34)C(OC3OC(CNc4cccc5ccccc45)C(OC4OC(CNc5cccc6ccccc56)C(OC5OC(CNc6cccc7ccccc67)C(OC6OC(CNc7cccc8ccccc78)C(OC7OC(CNc8cccc9ccccc89)C(OC8OC(CNc9cccc%10ccccc9%10)C(O2)C(O)C8O)C(O)C7O)C(O)C6O)C(O)C5O)C(O)C4O)C(O)C3O)C1O` (stereo not shown), in the test on Pseudomonas aeruginosa, the “MIC PA” value was over 200 µg/mL. Also, in the test with Salmonella choleraesuis, the “MIC SC” value is over 200 µg/mL. In addition, the “MIC EC” value with Eschericia coli is over 200 µg/mL.

`OC1C2OC(CNc3ccccc3-c3ccccc3)C(OC3OC(CNc4ccccc4-c4ccccc4)C(OC4OC(CNc5ccccc5-c5ccccc5)C(OC5OC(CNc6ccccc6-c6ccccc6)C(OC6OC(CNc7ccccc7-c7ccccc7)C(OC7OC(CNc8ccccc8-c8ccccc8)C(OC8OC(CNc9ccccc9-c9ccccc9)C(O2)C(O)C8O)C(O)C7O)C(O)C6O)C(O)C5O)C(O)C4O)C(O)C3O)C1O` (stereo not shown): in the test with Pseudomonas aeruginosa, the “MIC PA” value was over 200 µg/mL. For the same molecule, the “MIC SC” value in the test with Salmonella choleraesuis was over 200 µg/mL. The “MIC EC” value in the test with Eschericia coli was over 200 µg/mL.

With `CCCCCCCCCC[N+]12CC[N+](CC(=O)NCC3OC4OC5C(CNC(=O)C[N+]67CC[N+](CCCCCCCCCC)(CC6)CC7)OC(OC6C(CNC(=O)C[N+]78CC[N+](CCCCCCCCCC)(CC7)CC8)OC(OC7C(CNC(=O)C[N+]89CC[N+](CCCCCCCCCC)(CC8)CC9)OC(OC8C(CNC(=O)C[N+]9%10CC[N+](CCCCCCCCCC)(CC9)CC%10)OC(OC9C(CNC(=O)C[N+]%10%11CC[N+](CCCCCCCCCC)(CC%10)CC%11)OC(OC%10C(CNC(=O)C[N+]%11%12CC[N+](CCCCCCCCCC)(CC%11)CC%12)OC(OC3C(O)C4O)C(O)C%10O)C(O)C9O)C(O)C8O)C(O)C7O)C(O)C6O)C(O)C5O)(CC1)CC2` (stereo not shown), the “MIC EF” value in the test on Enterococcus faecium was over 200 µg/mL.

As to `OC1C2OC(CNCc3cccc4ccccc34)C(OC3OC(CNCc4cccc5ccccc45)C(OC4OC(CNCc5cccc6ccccc56)C(OC5OC(CNCc6cccc7ccccc67)C(OC6OC(CNCc7cccc8ccccc78)C(OC7OC(CNCc8cccc9ccccc89)C(OC8OC(CNCc9cccc%10ccccc9%10)C(O2)C(O)C8O)C(O)C7O)C(O)C6O)C(O)C5O)C(O)C4O)C(O)C3O)C1O` (stereo not shown), in the test on Pseudomonas aeruginosa, the “MIC PA” value is over 200 µg/mL. Further, in the test on Salmonella choleraesuis, the “MIC SC” value is over 200 µg/mL. In the test on Eschericia coli, the “MIC EC” value is over 200 µg/mL.

For `C[C@H](NCC1OC2OC3C(CN[C@@H](C)c4ccccc4)OC(OC4C(CN[C@@H](C)c5ccccc5)OC(OC5C(CN[C@@H](C)c6ccccc6)OC(OC6C(CN[C@@H](C)c7ccccc7)OC(OC7C(CN[C@@H](C)c8ccccc8)OC(OC8C(CN[C@@H](C)c9ccccc9)OC(OC1C(O)C2O)C(O)C8O)C(O)C7O)C(O)C6O)C(O)C5O)C(O)C4O)C(O)C3O)c1ccccc1` (stereo partly shown), in the test with Pseudomonas aeruginosa, the “MIC PA” value is over 200 µg/mL. Further, the “MIC SC” value against Salmonella choleraesuis was over 200 µg/mL.

`Cc1cccc(NCC2OC3OC4C(CNc5cccc(C)c5)OC(OC5C(CNc6cccc(C)c6)OC(OC6C(CNc7cccc(C)c7)OC(OC7C(CNc8cccc(C)c8)OC(OC8C(CNc9cccc(C)c9)OC(OC9C(CNc%10cccc(C)c%10)OC(OC2C(O)C3O)C(O)C9O)C(O)C8O)C(O)C7O)C(O)C6O)C(O)C5O)C(O)C4O)c1` (stereo not shown): in the test with Pseudomonas aeruginosa, the “MIC PA” value was over 200 µg/mL. The “MIC SC” value with Salmonella choleraesuis is over 200 µg/mL. The “MIC EC” value in the test on Eschericia coli was over 200 µg/mL.

Consider `Cc1ccccc1NCC1OC2OC3C(CNc4ccccc4C)OC(OC4C(CNc5ccccc5C)OC(OC5C(CNc6ccccc6C)OC(OC6C(CNc7ccccc7C)OC(OC7C(CNc8ccccc8C)OC(OC8C(CNc9ccccc9C)OC(OC1C(O)C2O)C(O)C8O)C(O)C7O)C(O)C6O)C(O)C5O)C(O)C4O)C(O)C3O` (stereo not shown), for which the “MIC PA” value in the test on Pseudomonas aeruginosa was over 200 µg/mL. Further, the “MIC SC” value against Salmonella choleraesuis was over 200 µg/mL. Further, the “MIC EC” value with Eschericia coli is over 200 µg/mL.

For `COc1cccc(CCNCC2OC3OC4C(CNCCc5cccc(OC)c5)OC(OC5C(CNCCc6cccc(OC)c6)OC(OC6C(CNCCc7cccc(OC)c7)OC(OC7C(CNCCc8cccc(OC)c8)OC(OC8C(CNCCc9cccc(OC)c9)OC(OC9C(CNCCc%10cccc(OC)c%10)OC(OC2C(O)C3O)C(O)C9O)C(O)C8O)C(O)C7O)C(O)C6O)C(O)C5O)C(O)C4O)c1` (stereo not shown), the “MIC PA” value with Pseudomonas aeruginosa was over 200 µg/mL.

For the molecule `CC(C)CCCCC(C)NCC1OC2OC3C(CNC(C)CCCCC(C)C)OC(OC4C(CNC(C)CCCCC(C)C)OC(OC5C(CNC(C)CCCCC(C)C)OC(OC6C(CNC(C)CCCCC(C)C)OC(OC7C(CNC(C)CCCCC(C)C)OC(OC8C(CNC(C)CCCCC(C)C)OC(OC1C(O)C2O)C(O)C8O)C(O)C7O)C(O)C6O)C(O)C5O)C(O)C4O)C(O)C3O` (stereo not shown), the “MIC PA” value with Pseudomonas aeruginosa is over 200 µg/mL.

For `OC1C2OC(CNCCC3=CCCCC3)C(OC3OC(CNCCC4=CCCCC4)C(OC4OC(CNCCC5=CCCCC5)C(OC5OC(CNCCC6=CCCCC6)C(OC6OC(CNCCC7=CCCCC7)C(OC7OC(CNCCC8=CCCCC8)C(OC8OC(CNCCC9=CCCCC9)C(O2)C(O)C8O)C(O)C7O)C(O)C6O)C(O)C5O)C(O)C4O)C(O)C3O)C1O` (stereo not shown), the “MIC PA” value against Pseudomonas aeruginosa is over 200 µg/mL.

On to `OC1C2OC(CNCc3ccc(Cl)cc3)C(OC3OC(CNCc4ccc(Cl)cc4)C(OC4OC(CNCc5ccc(Cl)cc5)C(OC5OC(CNCc6ccc(Cl)cc6)C(OC6OC(CNCc7ccc(Cl)cc7)C(OC7OC(CNCc8ccc(Cl)cc8)C(OC8OC(CNCc9ccc(Cl)cc9)C(O2)C(O)C8O)C(O)C7O)C(O)C6O)C(O)C5O)C(O)C4O)C(O)C3O)C1O` (stereo not shown), for which the “MIC PA” value in the test on Pseudomonas aeruginosa is over 200 µg/mL. In the test with Salmonella choleraesuis, the “MIC SC” value is over 200 µg/mL.

As to `Cc1cc(NCC2OC3OC4C(CNc5ccc(C(C)C)c(C)c5)OC(OC5C(CNc6ccc(C(C)C)c(C)c6)OC(OC6C(CNc7ccc(C(C)C)c(C)c7)OC(OC7C(CNc8ccc(C(C)C)c(C)c8)OC(OC8C(CNc9ccc(C(C)C)c(C)c9)OC(OC9C(CNc%10ccc(C(C)C)c(C)c%10)OC(OC2C(O)C3O)C(O)C9O)C(O)C8O)C(O)C7O)C(O)C6O)C(O)C5O)C(O)C4O)ccc1C(C)C` (stereo not shown), in the test with Pseudomonas aeruginosa, the “MIC PA” value is over 200 µg/mL. Further, the “MIC SC” value in the test on Salmonella choleraesuis was over 200 µg/mL. Besides, in the test on Eschericia coli, the “MIC EC” value was over 200 µg/mL.

For the molecule `OC1C2OC(CNCc3ccc(Br)cc3)C(OC3OC(CNCc4ccc(Br)cc4)C(OC4OC(CNCc5ccc(Br)cc5)C(OC5OC(CNCc6ccc(Br)cc6)C(OC6OC(CNCc7ccc(Br)cc7)C(OC7OC(CNCc8ccc(Br)cc8)C(OC8OC(CNCc9ccc(Br)cc9)C(O2)C(O)C8O)C(O)C7O)C(O)C6O)C(O)C5O)C(O)C4O)C(O)C3O)C1O` (stereo not shown), the “MIC EC” value in the test with Eschericia coli is over 200 µg/mL.

For the origin of these results see patent publication US20110071108A1, “Beta-Cyclodextrin Derivatives as Antibacterial Agents” (Pinnacle Pharmaceuticals, Inc., priority 2005, published 2011).
